Results reported in patent US20240108001A1, “Antibacterial Composition” (LG Chem, Ltd., priority 2021, published 2024).
One block for each molecule: values may come before it.

Key:
[1] = tested on: 3T3; experiment: Acute oral toxicity dose LD50 by 3T3 Neutral Red Uptake (NRU) assay (OECD Guidance Document No 129); type: cell-based; settings: LD50 calculated from 3T3 NRU assay (OECD GD 129)
Description: The acute oral toxicity dose LD50 was measured by 3T3 Neutral Red Uptake (NRU) assay (OECD Guidance Document No 129). Specifically, LD50 may be calculated by the following method.

[2] = Critical micelle concentration from surface tension at each concentration (Method 5, Du Nouy ring, force tensiometer); type: physicochemical; settings: aqueous solutions, measurement repeated three times
Description: A solution comprising the compound comprising quaternary ammonium structure is prepared, and the surface tension of the solution is measured at each concentration. A calibration curve of the surface tension at each concentration is obtained, and the critical micelle concentration of the compound comprising the quaternary ammonium structure is obtained therefrom.
In this case, the surface tension at each concentration may be measured using a surface tension meter (force tensiometer) and a Du Nouy ring method.
In addition, the solution may use a solvent such as distilled water, but the solvent is not limited thereto.
The critical micelle concentrations of Monomers 2 and 3 and Comparative Monomer 2 were measured by Method 5, and are shown in the following Table 4 and FIGS. 4 to 6. More specifically, aqueous solutions (30 mL) were prepared for each concentration of Monomers 2 and 3 and Comparative Monomer 2, and the surface tension was measured using the Du Nouyring method of a force tensiometer. Each measurement was repeated three times. The surface tension was measured by preparing diluted solutions until the surface tension was similar to deionized water. The critical micelle concentration (CMC) was confirmed by confirming through the change in surface tension with concentration that each aqueous solution formed a micelle.

SMILES: C=CC(=O)OCC[N+](CCCC)(CCCC)CCCCCCCCCCCC [Monomer 3]
Acute oral toxicity dose (mg/Kg) LD50 [1]: 843 mg/kg
Critical micelle concentration (wt %) [2]: 0.25 ± 0.05 wt %

SMILES: C=CC(=O)OCC[N+](CCCCCCCCCCCCCC)(CCCCCCCCCCCCCC)CCCCCCCCCCCCCC [Comparative Monomer 2, reference compound]
Acute oral toxicity dose (mg/Kg) LD50 [1]: 231 mg/kg
Critical micelle concentration (wt %) [2]: 0.06 ± 0.01 wt %

SMILES: C=C(C)C(=O)OCC[N+](CCCC)(CCCCCCCC)CCCCCCCCCC (centres unmarked) [Monomer 7]
Acute oral toxicity dose (mg/Kg) LD50 [1]: 998 mg/kg

SMILES: C=CC(=O)OCC[N+](CCCC)(CCCC)CCCCCC [Comparative Monomer 1, reference compound]
Acute oral toxicity dose (mg/Kg) LD50 [1]: 2,355 mg/Kg

Critical micelle concentration (wt %) [2]: 1.5 ± 0.3 wt %
SMILES: C=CC(=O)OCC[N+](CCCC)(CCCC)CCCCCCCCCC [Monomer 2]

SMILES: C=C(C)C(=O)OCC[N+](CCCC)(CCCCCCCCCC)CCCCCCCCCC [Monomer 8]
Acute oral toxicity dose (mg/Kg) LD50 [1]: 869 mg/kg
